This is an account of results in patent US20210171577A1, “COMBINATORIAL ANTIBIOTIC DERIVATIVES BASED ON SUPRAMOLECULAR STRUCTURES” (priority 2017, published 2021).

Where “and” joins values, the source holds several entries; their conditions need not be identical. Identical values can stand only once. Marks after values point to notes of the source that are not given here.

In experiment [1] the test system is Escherichia coli IMI2001. Put plainly: Neutropenic peritonitis/sepsis model in mice, dose response (Example 5). It counts as in vivo, NMRI mice. As for the experimental part:
The objective of this study was to study the dose response relationship after intravenous (iv) administration of a single dose of SKPA (CBT) in the range of 0.1612 mg/kg. The effect was investigated against resistant E. coli IMI2001 in a neutropenic peritonitis model. Administration of meropenem at a dose of 40 mg/kg was included as a positive control group. The number of colonies in the blood and peritoneal fluid was determined 5 hours after administration. The mouse peritonitis/sepsis model is a well-known model for antimicrobial activity studies as described by N. FrimodtMoller and J. D.
30 female outbred NMRI mice, 2530 grams (Harlan Scandinavia).
Escherichia coli IMI2001 from IMINAMN, Kharkov, Ukraine. Clinical isolate from a human wound from 2003 with multidrug resistance (to ampicillin, ceftazidime, aztreonam, gentamicin, ciprofloxacin).
ASCA in Ringer's acetate, pH 6, 1.2 mg/ml, 6.0 ml. The solution was stored at 4° C. until use. The analyzes of the compositions used for administration were performed at the end of the phase of the study conducted on live animals, and the following results were obtained in these analyzes.
(§1) The introduction of cyclophosphamide to mice. Neutropenia was induced in mice by injection of 0.5 ml of cyclophosphamide solution intraperitoneally 4 days (200 mg/kg) and 1 day (100 mg/kg) before infection.
Infection of mice. Fresh E. coli IMI2001 colonies obtained overnight in an agar plate and 5% horse blood were suspended and diluted in sterile saline to approximately 2×10^6 CFU/ml. One hour before the start of administration (time point 1 h), mice were intraperitoneally infected with 0.5 ml of a suspension of E. coli in the lateral lower quadrant of the abdomen. Approximately 0.51 hours after the administration, 45 μl of neurofen (20 mg ibuprofen per ml, corresponding to 30 mg/kg) was orally administered to the mice as a painkiller.
The introduction of drugs to mice. Mice were given a single intravenous administration of CBT, meropenem, or excipient into the lateral tail vein for approximately 30 seconds in a volume of 10 ml/kg at time 0 h (see Table 1). The dose determination was based on an average body weight of 30 g. Mice with a body weight of 2832 g were injected with 0.30 ml of solution. Mice weighing 2728 g were injected with 0.25 ml of the solution and mice weighing 32.136 g were injected with 0.35 ml of the solution.
T indicates time relative to administration. The numbers in the columns of the sampling represent the identification numbers of mice. Clinical scoring of mice. Mice were observed during the study and assigned them scores from 0 to 5 depending on their behavior and clinical signs.
The number of colonies was determined in blood and peritoneal fluid for 0 and 5 hours. Mice were anesthetized with CO2+O2 and blood was taken from an axillary incision into Eppendorf tubes coated with ethylene diamine tetraacetic acid (EDTA). Mice were sacrificed immediately after blood sampling, and a total of 2 ml of sterile physiological saline was administered intraperitoneally and a gentle massage of the abdomen was performed until it was opened and the fluid samples were pipetted. Then, each sample was diluted 10 times in physiological saline and drops of 20 μl were applied to blue agar plates. All agar plates were incubated for 1822 hours at 35° C. in air.
Results. The number of colonies was determined at the beginning of administration and 5 hours after administration. Before the calculations, a log 10 transformation of the CFU count was performed.
Dose response curves (data not shown) were calculated in GraphPad Prism using a sigmoid dose response curve (variable angle). […] The maximum effect of CBT, Emax, was determined as the difference in log CFU in the absence of response and at the maximum response. The lack of response was characterized as the number of colonies at a level determined in mice that were injected with vehicle. […]

The test system of experiment [2] is Escherichia coli IMI2001. Put plainly: Peritonitis/sepsis model in neutropenic NMRI mice, effect over time at 7.5 mg/kg (Example 6). It counts as in vivo. The procedure: The objective of this study was to investigate the effectiveness of CPR in vivo after intravenous (iv) administration of a single dose of 7.5 mg/kg. The effect was tested against Escherichia coli IMI2001 in a peritonitis model in neutropenia NMRI mice to avoid the use of mucin, which is commonly used in a mouse peritonitis model. Neutropenia was induced in mice by injection of cyclophosphamide. Administration of meropenem at a dose of 40 mg/kg was included as a positive control group and vehicle administration was included as a negative control group. The number of colonies in peritoneal fluid and blood was determined 2 and 5 hours after administration.
30 female outbred mice NMRI, 2832 grams (Kiev).
Escherichia coli IMI2001 from IMINAMN, Ukraine, Kharkov. Clinical isolate from a human wound from 2013 with multidrug resistance (to ampicillin, ceftazidime, aztreonam, gentamicin, ciprofloxacin).
PPC in Ringer's acetate, pH 6, 1.2 ml, 0.75 mg/ml.
as §1
Infection of mice. Fresh E. coli AID #172 colonies obtained overnight in an agar plate and 5% horse blood were suspended and diluted in sterile saline to approximately 2×10^6 CFU/ml. One hour before the start of administration (time point 1 h), mice were intraperitoneally infected with 0.5 ml of a suspension of E. coli in the lateral lower quadrant of the abdomen. 2.5 h after administration with significant clinical signs of infection, mice were orally administered 45 μl of neurofen (20 mg ibuprofen per ml, which corresponded to 30 mg/kg) as a painkiller.
Score mice. At each sampling in mice, a clinical assessment of the clinical signs of infection was performed.
The introduction of drugs to mice. The mice were given a single intravenous administration of CPR, meropenem, or excipient into the lateral tail vein for approximately 30 seconds at a time point of 0 h (see Table 6). The dose determination was based on an average body weight of 30 g. Mice with a body weight of 2832 g were injected with 0.30 ml of solution. Mice weighing 2728 g were injected with 0.25 ml of the solution and mice weighing 32.136 g were injected with 0.35 ml of the solution. Mice 17 accidentally injected 0.35 ml, despite the fact that its body weight was 29.5 g.
Fence samples. The number of colonies was determined in blood and peritoneal fluid at 0, 2 and 5 hours after administration according to Table 6.
Mice were anesthetized with CO2+O2 and blood sampling was performed from a section in the axillary region. The mice were sacrificed by cervical dislocation and a total of 2 ml of sterile physiological saline was injected intraperitoneally and a gentle massage of the abdomen was performed, then it was opened and a sample of the fluid was pipetted. Each sample was diluted 10 times in saline and drops of 20 μl were applied to plates with blood agar. All agar plates were incubated for 1822 hours at 35° C. in air.

Experiment [3] deals with Escherichia coli IMI2001. Put plainly: Model of hip (femoral) infection with neutropenia in mice (Example 7). It counts as in vivo, NMRI mice. As for the experimental part: Introduction The objective of this study was to study the dose response after intravenous (iv) administration of a single dose of CPR in the range of 0.1612 mg/kg. The effect was investigated against E. coli IMI2001 in a model of femoral infection with neutropenia. Administration of meropenem at a dose of 40 mg/kg was included as a positive control group. The number of colonies in the hips was determined 5 hours after administration. The hip infection model is a well-known model for studies of the antimicrobial effect and tissue penetration, as described by S. Gudmundsson & N. Erlensdottir: Handbook of Animal Models of Infection (1999), ed. by O. Zak & M. A. Sande, Academic Press, San Diego, US, and some other publications. See the review by D. Andes & C. Craig: Animal model pharmacokinetics and pharmacodynamics: a critical review. International Journal of Antimicrobial Agents, 19 (4): 261268.
Materials and methods. 40 female outbred mice NMRI, 2530 grams (Kiev, Ukraine). Escherichia coli IMI2001 from IMINAMN, Kharkov, Ukraine. Clinical isolate from a human wound from […] with multidrug resistance (to ampicillin, ceftazidime, aztreonam, gentamicin, ciprofloxacin).
PPC in Ringer's acetate, pH 6, 1.2 mg/ml, 6.0 ml. The solution was stored at 4° C. until use. The analyzes of the compositions used for administration were performed at the end of the phase of the study conducted on live animals, and the following results were obtained in these analyzes.
as §1
Infection of mice. […]
The number of colonies was determined in the hips at 0 and 5 h. […]
Results. The number of colonies was determined at the beginning of administration and 5 hours after administration. […] CFU/ml in the infectious material was determined to be 7.35 log 10, which corresponds to […]. […]

Experiment [4] deals with multiresistant strains of microorganisms and fungi. Put plainly: Antimicrobial activity in vitro, collection of multiresistant test strains (summary statements). To be noted: resistant fungal strains. The experiment is classed as cell-based.
[5] abbreviates: Meropenem 40 mg/kg single iv, T = 5 h, individual mice.
Setting [6] is: Meropenem 40 mg/kg single iv, T = 5 h, p < 0.01 vs filler.
[7] abbreviates: Meropenem 40 mg/kg single iv, individual mice, score 0-5.
The mark [8] stands for this setting: Meropenem 40 mg/kg single iv, 2 h.
Where [9] appears, read: Meropenem 40 mg/kg single iv, 5 h.
The mark [10] stands for this setting: Meropenem 40 mg/kg single iv, T = 2 h, individual mice.

As to `C[C@@H](O)[C@H]1C(=O)N2C(C(=O)O)=C(S[C@@H]3CN[C@H](C(=O)N(C)C)C3)[C@H](C)[C@H]12` [Meropenem, meropenem], the “log10 CFU Blood” value in the experiment on Escherichia coli IMI2001 [1] (setting [5]) was 2.48 log10 CFU and 1.70 log10 CFU and 2.95 log10 CFU; with Escherichia coli IMI2001 [2] (setting [10]) it was 3.60 log10 CFU and 3.57 log10 CFU and 4.11 log10 CFU; in the experiment on Escherichia coli IMI2001 [2] (setting [5]), 3.20 log10 CFU and 2.85 log10 CFU and 3.26 log10 CFU. In addition, the “log10 CFU PF” value in the experiment with Escherichia coli IMI2001 [1] (setting [5]) is 3.92 log10 CFU and 1.70 log10 CFU and 2.30 log10 CFU; in the experiment with Escherichia coli IMI2001 [2] (setting [10]), 4.12 log10 CFU and 3.40 log10 CFU and 4.24 log10 CFU; with Escherichia coli IMI2001 [2] (setting [5]) it was 4.38 log10 CFU and 4.00 log10 CFU and 4.26 log10 CFU. Besides, the “log10 CFU Average in PF” value in the experiment with Escherichia coli IMI2001 [1] (setting [6]) was 2.64 log10 CFU. Also, in the experiment with Escherichia coli IMI2001 [1] (Meropenem 40 mg/kg single iv, T = 5 h, p < 0.05 vs filler), the “log10 CFU Blood average” value was found to be 2.38 log10 CFU. For the same compound, in the experiment with Escherichia coli IMI2001 [1] (setting [7]), the “Clinical Score T = 5 h” value is 1 (2×) and 0. The “CFU compared with excipient, blood (p<0.05) and peritoneal fluid (p<0.01)” value with Escherichia coli IMI2001 [1] (meropenem 40 mg/kg iv, 5 h) is on record as “significant decrease”. The “Difference in CFU level compared with filler, blood” value in the experiment on Escherichia coli IMI2001 [2] (setting [8]) is listed as “blood −0.82 log CFU/ml”; in the experiment with Escherichia coli IMI2001 [2] (setting [9]), “blood −1.64 log CFU/ml”. Also, the “Difference in CFU level compared with filler, peritoneum” value in the experiment with Escherichia coli IMI2001 [2] (setting [8]) is 2 h: peritoneum −1.51 log CFU/ml; in the experiment on Escherichia coli IMI2001 [2] (setting [9]), 5 h: peritoneum −1.51 log CFU/ml. In addition, the “log10 CFU Blood (group average)” value in the experiment with Escherichia coli IMI2001 [2] (Meropenem 40 mg/kg single iv, T = 2 h) is given as 3.76 log10 CFU; with Escherichia coli IMI2001 [2] (setting [6]), 3.10** log10 CFU. The “log10 CFU PF (group average)” value in the experiment on Escherichia coli IMI2001 [2] (Meropenem 40 mg/kg single iv, T = 2 h, p < 0.01 vs filler) is on record as 3.92 ** log10 CFU; in the experiment with Escherichia coli IMI2001 [2] (setting [6]), 4.21 ** log10 CFU. Moreover, the “Score T = 2 h” value in the experiment on Escherichia coli IMI2001 [2] (setting [7]) came out at 1. The “Score T = 5 h” value in the experiment on Escherichia coli IMI2001 [2] (setting [7]) came out at 0. Further, in the experiment on Escherichia coli IMI2001 [2] (meropenem 40 mg/kg, 2 hours after administration), the “significant decrease of CFU compared with filler group” value is “only in the peritoneal fluid”. Moreover, the “CFU compared with filler group, blood and peritoneal fluid” value in the experiment on Escherichia coli IMI2001 [2] (meropenem 40 mg/kg, after 5 hours, p<0.01) is recorded as “significant decrease”. In addition, the “log10 CFU, hip, The average” value in the experiment with Escherichia coli IMI2001 [3] (Meropenem 40 mg/kg single iv, T = 5 h) was determined as 4.25 log10 CFU. Besides, the “log10 CFU, hip” value with Escherichia coli IMI2001 [3] (Meropenem 40 mg/kg single iv, T = 5 h, individual mice, smallest value of group excluded from average) was 4.99 log10 CFU and 3.94 log10 CFU. For the same compound, the “CFU compared with vehicle, hip” value with Escherichia coli IMI2001 [3] (meropenem 40 mg/kg iv, 5 h) is listed as “definite but insignificant decrease”.
For the compound `C[C@@H]1[C@H](O)[C@@H](C)/C=C/C=C/C=C/C=C/C=C/C=C/C=C/[C@H](O[C@@H]2O[C@H](C)[C@@H](O)[C@H](N)[C@@H]2O)C[C@@H]2O[C@](O)(C[C@@H](O)C[C@@H](O)[C@H](O)CC[C@@H](O)C[C@@H](O)CC(=O)O[C@H]1C)C[C@H](O)[C@H]2C(=O)O` [amphotericin], the antifungal activity entry in experiment [4] is reported as “did not exert antifungal activity”.
`C[C@@H]1[C@H](O)[C@@H](C)/C=C/C=C/CC/C=C/C=C/C=C/C=C/C(O[C@H]2O[C@H](C)[C@@H](O)[C@H](N)[C@@H]2O)CC2O[C@](O)(CC(O)C(O)CCC(O)CC(O)CC(O)CC(=O)O[C@H]1C)CC(O)C2C(=O)O` (stereo partly drawn) [nystatin]: in experiment [4], the antifungal activity entry is recorded as “did not exert antifungal activity”.
